In patent publication US11183645B2, “Organic thin film and method for manufacturing organic thin film, organic electroluminescence element, display device, illumination device, organic thin film solar cell, thin film transistor, and coating composition” (NIPPON HOSO KYOKAI, priority 2015, dated 2021):
Where two headings read alike, the source gives them in different places.

Assay: acid dissociation constant pKa of the first material
Conditions: for pKa (H2O): acid dissociation constant in water, first materials of the electron injection layer
From the text: In the present invention, the “pKa” usually means the “acid dissociation constant in water”. When the pKa cannot be measured in water, it means the “acid dissociation constant in dimethyl sulfoxide (DMSO)”, and when the pKa cannot be measured even in DMSO, it means the “acid dissociation constant in acetonitrile”. The pKa preferably means the “acid dissociation constant in water”.

| pKa | pKa (water) | SMILES | pKa (H2O) |
| --- | --- | --- | --- |
| – | – | CN(C)P(=NC(C)(C)C)(N=P(N(C)C)(N(C)C)N(C)C)N(C)C [Phosphazene base P2-t-Bu] | 20 |
| – | – | C1CCC2=NCCCN2CC1 [DBU, 1,8-diazabicyclo[5.4.0]undecene-7] | 12.5 |
| ≥ 1 | – | C1=Cc2ccccc2C1 [indene] | – |
| – | 9.7 | CN(C)c1ccncc1 [4-DMAP, 4-dimethylaminopyridine] | – |
| – | 4.88 | COc1cccnc1 [3-MeOP, 3-methoxypyridine] | – |
| ≥ 1 | – | CN(C)c1ccc2cc3ccc(N(C)C)cc3nc2c1 [AOB, acridine orange] | – |
